Assay [1] concerns the target isolated recombinant JAK2 kinase domain (Homo sapiens (Human), UniProt O60674). Description: JAK2 enzyme assay (Caliper LabChip, peptide phosphorylation). The format is biochemical. The conditions noted are these: 25 μM ATP.
Assay [2] addresses isolated recombinant JAK1 kinase domain (Homo sapiens (Human), UniProt P23458). As to the kind of experiment: JAK1 enzyme assay (Caliper LabChip, peptide phosphorylation). It is filed as biochemical. The conditions noted are these: isolated recombinant JAK1 kinase domain, 25 μM ATP.

isolated recombinant JAK2 kinase domain, sequence (O60674 849-1124): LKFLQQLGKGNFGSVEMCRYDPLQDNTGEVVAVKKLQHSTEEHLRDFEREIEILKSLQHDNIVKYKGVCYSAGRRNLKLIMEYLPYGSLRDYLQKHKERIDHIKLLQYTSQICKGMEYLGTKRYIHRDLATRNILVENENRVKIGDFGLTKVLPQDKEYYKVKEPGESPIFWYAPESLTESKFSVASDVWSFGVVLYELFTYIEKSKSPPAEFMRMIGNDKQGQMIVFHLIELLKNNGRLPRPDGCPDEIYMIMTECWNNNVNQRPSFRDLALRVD
isolated recombinant JAK1 kinase domain, sequence (P23458 875-1153): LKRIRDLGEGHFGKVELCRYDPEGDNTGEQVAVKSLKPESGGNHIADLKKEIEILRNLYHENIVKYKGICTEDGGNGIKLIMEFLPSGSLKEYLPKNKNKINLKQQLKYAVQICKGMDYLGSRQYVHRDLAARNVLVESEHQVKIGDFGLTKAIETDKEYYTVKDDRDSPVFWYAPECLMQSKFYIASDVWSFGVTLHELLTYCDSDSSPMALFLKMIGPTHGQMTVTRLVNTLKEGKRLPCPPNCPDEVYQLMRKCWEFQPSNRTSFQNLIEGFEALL

For orientation: Ki means a dissociation constant, usually derived from enzyme kinetics or from competition with a known ligand. As for `O=C(Nc1cn(CC(=O)N2CCOC(CO)C2)nc1-c1cc(Cl)ccc1OC(F)F)c1cnn2cccnc12` (stereo not shown) [Example 277, N-[3-[5-chloro-2-(difluoromethoxy)phenyl]-1-[2-[2-(hydroxy-methyl)morpholin-4-yl]-2-oxo-ethyl]pyrazol-4-yl]pyrazolo[1,5-a]pyrimidine-3-carboxamide], the Ki in assay [1] stood at 830 pM; in assay [2], 510 pM.

`CN(CC1(C#N)CCCCC1)C1CCN(c2nc(-c3cc(Cl)ccc3OC(F)F)c(NC(=O)c3cnn4cccnc34)s2)CC1` [Example 203, N-[4-[5-chloro-2-(difluoromethoxy)phenyl] 2-[4-[(1-cyanocyclohexyl)methyl-methyl-amino]-1-piperidyl]thiazol-5-yl]pyrazolo[1,5-a]pyrimidine-3-carboxamide]: the Ki in assay [1] stood at 4150 pM; in assay [2] it was 5480 pM.

Consider `CN(C)C[C@H]1CCCN(C(=O)Cn2cc(NC(=O)c3cnn4cccnc34)c(-c3cc(Cl)ccc3OC(F)F)n2)C1` [Example 71, N-[3-[5-chloro-2-(difluoromethoxy)phenyl]-1-[2-[(3R)-3-[(dimethylamino)methyl]-1-piperidyl]-2-oxo-ethyl]pyrazol-4-yl]pyrazolo[1,5-a]pyrimidine-3-carboxamide], for which the Ki was 4660 pM in assay [1] and 1060 pM in assay [2].

Take `O=C(Nc1cn(CC(=O)N2CC3(CCNCC3)C2)nc1-c1cc(Cl)ccc1OC(F)F)c1cnn2cccnc12` [Example 217, N-[3-[5-chloro-2-(difluoromethoxy)phenyl]-1-[2-(2,7-diazaspiro[3.5]nonan-2-yl)-2-oxo-ethyl]pyrazol-4-yl]pyrazolo[1,5-a]pyrimidine-3-carboxamide]: the results for the Ki in assay [1] and in assay [2] were 1370 pM and 1070 pM, respectively.

`Nc1nn2cccnc2c1C(=O)Nc1cn(CC(=O)N2CCC(N3CC[C@@H](O)C3)CC2)nc1-c1cc(Cl)ccc1OC(F)F` [Example 76, 2-amino-N-[3-[5-chloro-2-(difluoromethoxy)phenyl]-1-[2-[4-[(3R)-3-hydroxypyrrolidin-1-yl]-1-piperidyl]-2-oxo-ethyl]pyrazol-4-yl]pyrazolo[1,5-a]pyrimidine-3-carboxamide]: the Ki turned out to be 520 pM in assay [1] and 500 pM in assay [2].

For `CN(C)CCOC1CCN(C(=O)Cn2cc(NC(=O)c3c(N)nn4cccnc34)c(-c3cc(Cl)ccc3OC(F)F)n2)CC1` [Example 137, 2-amino-N-[3-[5-chloro-2-(difluoromethoxy)phenyl]-1-[2-[4-[2-(dimethylamino)ethoxy]-1-piperidyl]-2-oxo-ethyl]pyrazol-4-yl]pyrazolo[1,5-a]pyrimidine-3-carboxamide], the figures for the Ki in assay [1] and in assay [2] were 720 pM and 530 pM, respectively.

As to `O=C(Nc1cn(CC(=O)N2CCN3CCCCC3C2)nc1-c1cc(Cl)ccc1OC(F)F)c1cnn2cccnc12` (stereo not shown) [Example 241, N-[1-[2-(1,3,4,6,7,8,9,9a-octahydropyrido[1,2-a]pyrazin-2-yl)-2-oxo-ethyl]-3-[5-chloro-2-(difluoromethoxy)phenyl]pyrazol-4-yl]pyrazolo[1,5-a]pyrimidine-3-carboxamide], the Ki in assay [1] is 1250 pM; in assay [2] it was 870 pM.

For the compound `O=C(Nc1cn(CC(=O)N2CCC(O)(c3ccccc3)CC2)nc1-c1cc(Cl)ccc1OC(F)F)c1cnn2cccnc12` [Example 289, N-[3-[5-chloro-2-(difluoromethoxy)phenyl]-1-[2-(4-hydroxy-4-phenyl-1-piperidyl)-2-oxo-ethyl]pyrazol-4-yl]pyrazolo[1,5-a]pyrimidine-3-carboxamide], the Ki in assay [1] was 380 pM; in assay [2], 300 pM.

Turning to `CCOC(=O)CN(CCn1cc(NC(=O)c2cnn3cccnc23)c(-c2cc(Cl)ccc2OC(F)F)n1)Cc1cccnc1` [Example 362, ethyl 2-[(2-[3-[5-chloro-2-(difluoromethoxy)phenyl]-4-[pyrazolo[1,5-a]pyrimidine-3-amido]-1H-pyrazol-1-yl]ethyl)(pyridin-3-ylmethyl)amino]acetate], the Ki in assay [1] worked out at 3270 pM; in assay [2], 5040 pM.

For the compound `Nc1nn2cccnc2c1C(=O)Nc1cn(CC(=O)N2CCC(F)(F)C2)nc1-c1cc(Cl)ccc1OC(F)F` [Example 282, 2-amino-N-[3-[5-chloro-2-(difluoromethoxy)phenyl]-1-[2-(3,3-difluoropyrrolidin-1-yl)-2-oxo-ethyl]pyrazol-4-yl]pyrazolo[1,5-a]pyrimidine-3-carboxamide], the Ki in assay [1] is 120 pM; in assay [2], 170 pM.

For the compound `Nc1nn2cccnc2c1C(=O)Nc1cn(CC(=O)N2CCOC(CO)C2)nc1-c1cc(Cl)ccc1OC(F)F` (stereo not shown) [Example 273, 2-amino-N-[3-[5-chloro-2-(difluoromethoxy)phenyl]-1-[2-[2-(hydroxy-methyl)morpholin-4-yl]-2-oxo-ethyl]pyrazol-4-yl]pyrazolo[1,5-a]pyrimidine-3-carboxamide], the Ki turned out to be 230 pM in assay [1] and 490 pM in assay [2].

With `Nc1nn2cccnc2c1C(=O)Nc1cn(CC(=O)N2CCN(CC3CC3)CC2)nc1-c1cc(Cl)ccc1OC(F)F` [Example 248, 2-amino-N-[3-[5-chloro-2-(difluoromethoxy)phenyl]-1-[2-[4-(cyclopropyl-methyl)piperazin-1-yl]-2-oxo-ethyl]pyrazol-4-yl]pyrazolo[1,5-a]pyrimidine-3-carboxamide], the Ki was 390 pM in assay [1] and 620 pM in assay [2].

In the case of `Nc1nn2cccnc2c1C(=O)Nc1cn(CC(=O)N2CCN(CCO)CC2)nc1-c1cc(Cl)ccc1OC(F)F` [Example 244, 2-amino-N-[3-[5-chloro-2-(difluoromethoxy)phenyl]-1-[2-[4-(2-hydroxyethyl)piperazin-1-yl]-2-oxo-ethyl]pyrazol-4-yl]pyrazolo[1,5-a]pyrimidine-3-carboxamide], the values for the Ki in assay [1] and in assay [2] were 240 pM and 490 pM, respectively.

For `CN1CCN(C(=O)Cn2cc(NC(=O)c3c(N)nn4cccnc34)c(-c3cc(Cl)ccc3OC(F)F)n2)CC1` [Example 243, 2-amino-N-[3-[5-chloro-2-(difluoromethoxy)phenyl]-1-[2-(4-methylpiperazin-1-yl)-2-oxo-ethyl]pyrazol-4-yl]pyrazolo[1,5-a]pyrimidine-3-carboxamide], the Ki in assay [1] amounted to 360 pM; in assay [2] it was 490 pM.

Consider `CN(C1CCN(C(=O)Cn2cc(NC(=O)c3cnn4cccnc34)c(-c3cc(Cl)ccc3OC(F)F)n2)CC1)C(Cc1ccccc1)C(F)(F)F` (stereo not shown) [Example 133, N-[1-[2-[4-[(1-benzyl-2,2,2-trifluoro-ethyl)-methyl-amino]-1-piperidyl]-2-oxo-ethyl]-3-[5-chloro-2-(difluoromethoxy)phenyl]pyrazol-4-yl]pyrazolo[1,5-a]pyrimidine-3-carboxamide], for which the Ki in assay [1] came to 8330 pM; in assay [2] it was 6510 pM.

`O=C(Nc1cn(CC(=O)N2CCCN(CCO)CC2)nc1-c1cc(Cl)ccc1OC(F)F)c1cnn2cccnc12` [Example 240, N-[3-[5-chloro-2-(difluoromethoxy)phenyl]-1-[2-[4-(2-hydroxyethyl)-1,4-diazepan-1-yl]-2-oxo-ethyl]pyrazol-4-yl]pyrazolo[1,5-a]pyrimidine-3-carboxamide]: the Ki in assay [1] was determined as 1680 pM; in assay [2], 1000 pM.

Regarding `CN(C)CCOC1CCN(C(=O)Cn2cc(NC(=O)c3cnn4cccnc34)c(-c3cc(Cl)ccc3OC(F)F)n2)CC1` [Example 73, N-[3-[5-chloro-2-(difluoromethoxy)phenyl]-1-[2-[4-[2-(dimethylamino)ethoxy]-1-piperidyl]-2-oxo-ethyl]pyrazol-4-yl]pyrazolo[1,5-a]pyrimidine-3-carboxamide], the Ki in assay [1] came out at 1710 pM; in assay [2], 710 pM.

These data come from US9346815B2, “5-chloro-2-difluoromethoxyphenyl pyrazolopyrimidine compounds, compositions and methods of use thereof” (Genentech, Inc., priority 2014, dated 2016).
